The source of these data is the NIST ThermoML archive (doi:10.1021/je200628n).

Numbers after ± are expanded uncertainties.

This data set can be described thus: activity coefficient (dimensionless); of the first substance listed, at infinite dilution; xn = mol fraction of the nth substance listed. As to conditions: 101 kPa, Liquid, Chromatography, x1 = 0.

As for `c1ccccc1` [benzene] + NCCCCCCCCCCCCN, the activity coefficient reads like this: (348.25 K) 2.08 ± 0.11; (353.15 K) 2.07 ± 0.11; (358.25 K) 2.06 ± 0.1; (363.21 K) 2.04 ± 0.1.
For `c1ccccc1` [benzene] + NCCCCCCCCCCN, the activity coefficient turned out to be 1.72 ± 0.086 (338.2 K), 1.61 ± 0.079 (348.15 K) and 1.58 ± 0.077 (353.22 K).
`c1ccccc1` [benzene] + NCCCCCCCCN: the activity coefficient (328.15 K) was determined as 1.8 ± 0.09, the activity coefficient (338.15 K) was 1.67 ± 0.083, the activity coefficient (343.15 K) is 1.62 ± 0.08 and the activity coefficient (348.15 K) amounted to 1.59 ± 0.078.
`CCCCO` [butan-1-ol] + NCCCCCCCCCCCCN: the activity coefficient was 1.07 ± 0.048 (348.25 K), 1.1 ± 0.049 (353.15 K), 1.12 ± 0.051 (358.25 K) and 1.16 ± 0.053 (363.21 K).
With `CCCCO` [butan-1-ol] + NCCCCCCCCCCN, the activity coefficient by setting is: (338.2 K) 0.721 ± 0.035; (348.15 K) 0.774 ± 0.037; (353.22 K) 0.815 ± 0.038.
With `CCCCO` [butan-1-ol] + NCCCCCCCCN, the activity coefficient reads like this: (328.15 K) 0.669 ± 0.034; (338.15 K) 0.675 ± 0.034; (343.15 K) 0.681 ± 0.034; (348.15 K) 0.692 ± 0.035.
With `CCCCOC(C)=O` [butyl ethanoate] + NCCCCCCCCCCCCN, the activity coefficient worked out at 1.69 ± 0.084 (348.25 K), 1.57 ± 0.077 (353.15 K), 1.46 ± 0.07 (358.25 K) and 1.36 ± 0.065 (363.21 K).
With `CCCCOC(C)=O` [butyl ethanoate] + NCCCCCCCCCCN, the activity coefficient (338.2 K) came to 1.5 ± 0.073, the activity coefficient (348.15 K) is 1.17 ± 0.054 and the activity coefficient (353.22 K) came out at 1.03 ± 0.046.
In the case of `CCCCOC(C)=O` [butyl ethanoate] + NCCCCCCCCN, the activity coefficient runs as follows: (328.15 K) 1.51 ± 0.073; (338.15 K) 1.25 ± 0.058; (343.15 K) 1.14 ± 0.052; (348.15 K) 1.05 ± 0.047.
In the case of `CCCCCCCCCC` [decane] + NCCCCCCCCCCCCN, the activity coefficient (348.25 K) worked out at 6.11 ± 0.31, the activity coefficient (353.15 K) turned out to be 5.89 ± 0.3, the activity coefficient (358.25 K) worked out at 5.74 ± 0.29 and the activity coefficient (363.21 K) was 5.6 ± 0.29.
Take `CCCCCCCCCC` [decane] + NCCCCCCCCCCN: the activity coefficient by setting is: (338.2 K) 5.59 ± 0.29; (348.15 K) 5.03 ± 0.26; (353.22 K) 4.78 ± 0.25.
Turning to `CCCCCCCCCC` [decane] + NCCCCCCCCN, the activity coefficient by setting is: (328.15 K) 5.47 ± 0.28; (338.15 K) 4.82 ± 0.25; (343.15 K) 4.58 ± 0.23; (348.15 K) 4.36 ± 0.22.
For the compound `ClCCl` [dichloromethane] + NCCCCCCCCCCCCN, the activity coefficient reads like this: (348.25 K) 1.33 ± 0.062; (353.15 K) 1.23 ± 0.057; (358.25 K) 1.12 ± 0.05; (363.21 K) 1.05 ± 0.046.
For `ClCCl` [dichloromethane] + NCCCCCCCCCCN, the activity coefficient by setting is: (338.2 K) 1.19 ± 0.054; (348.15 K) 1.09 ± 0.049; (353.22 K) 0.985 ± 0.043.
In the case of `ClCCl` [dichloromethane] + NCCCCCCCCN, the activity coefficient (328.15 K) stood at 0.657 ± 0.034, the activity coefficient (338.15 K) was determined as 0.552 ± 0.032, the activity coefficient (343.15 K) was 0.53 ± 0.031 and the activity coefficient (348.15 K) stood at 0.513 ± 0.031.
Take `CCOCC` [diethyl ether] + NCCCCCCCCCCCCN: the activity coefficient is, setting by setting: (348.25 K) 4.45 ± 0.23; (353.15 K) 4.37 ± 0.22; (358.25 K) 4.33 ± 0.22; (363.21 K) 4.25 ± 0.22.
For `CCOCC` [diethyl ether] + NCCCCCCCCCCN, the activity coefficient (338.2 K) came out at 3.84 ± 0.2, the activity coefficient (348.15 K) amounted to 3.69 ± 0.19 and the activity coefficient (353.22 K) worked out at 3.64 ± 0.19.
For `CCOCC` [diethyl ether] + NCCCCCCCCN, the activity coefficient by setting is: (328.15 K) 3.52 ± 0.18; (338.15 K) 3.4 ± 0.17; (343.15 K) 3.37 ± 0.17; (348.15 K) 3.36 ± 0.17.
Turning to `CCO` [ethanol] + NCCCCCCCCCCCCN, the activity coefficient came out at 0.828 ± 0.039 (348.25 K), 0.891 ± 0.04 (353.15 K), 0.952 ± 0.042 (358.25 K) and 1.03 ± 0.045 (363.21 K).
In the case of `CCO` [ethanol] + NCCCCCCCCCCN, the activity coefficient is, setting by setting: (338.2 K) 0.602 ± 0.033; (348.15 K) 0.676 ± 0.034; (353.22 K) 0.718 ± 0.035.
With `CCO` [ethanol] + NCCCCCCCCN, the activity coefficient is 0.384 ± 0.029 (328.15 K), 0.407 ± 0.029 (338.15 K), 0.42 ± 0.029 (343.15 K) and 0.435 ± 0.029 (348.15 K).
In the case of `CCOC(C)=O` [ethyl acetate] + NCCCCCCCCCCCCN, the activity coefficient (348.25 K) was 1.36 ± 0.064, the activity coefficient (353.15 K) was determined as 1.29 ± 0.06, the activity coefficient (358.25 K) is 1.22 ± 0.056 and the activity coefficient (363.21 K) came out at 1.15 ± 0.052.
For the compound `CCOC(C)=O` [ethyl acetate] + NCCCCCCCCCCN, the activity coefficient reads like this: (338.2 K) 1.16 ± 0.053; (348.15 K) 0.951 ± 0.042; (353.22 K) 0.868 ± 0.04.
In the case of `CCOC(C)=O` [ethyl acetate] + NCCCCCCCCN, the activity coefficient by setting is: (328.15 K) 1.08 ± 0.048; (338.15 K) 0.954 ± 0.042; (343.15 K) 0.902 ± 0.041; (348.15 K) 0.855 ± 0.039.
In the case of `CCc1ccccc1` [ethylbenzene] + NCCCCCCCCCCCCN, the activity coefficient by setting is: (348.25 K) 2.5 ± 0.13; (353.15 K) 2.47 ± 0.13; (358.25 K) 2.42 ± 0.12; (363.21 K) 2.39 ± 0.12.
As for `CCc1ccccc1` [ethylbenzene] + NCCCCCCCCCCN, the activity coefficient turned out to be 1.97 ± 0.1 (338.2 K), 1.78 ± 0.089 (348.15 K) and 1.72 ± 0.085 (353.22 K).
For `CCc1ccccc1` [ethylbenzene] + NCCCCCCCCN, the activity coefficient by setting is: (328.15 K) 2.07 ± 0.11; (338.15 K) 1.86 ± 0.094; (343.15 K) 1.77 ± 0.089; (348.15 K) 1.72 ± 0.085.
On to `CCCCCCC` [heptane] + NCCCCCCCCCCCCN, for which the activity coefficient is, setting by setting: (348.25 K) 5.21 ± 0.27; (353.15 K) 5.13 ± 0.26; (358.25 K) 5.04 ± 0.26; (363.21 K) 4.97 ± 0.26.
For the compound `CCCCCCC` [heptane] + NCCCCCCCCCCN, the activity coefficient (338.2 K) came out at 5.05 ± 0.26, the activity coefficient (348.15 K) stood at 4.64 ± 0.24 and the activity coefficient (353.22 K) amounted to 4.46 ± 0.23.
For `CCCCCCC` [heptane] + NCCCCCCCCN, the activity coefficient runs as follows: (328.15 K) 4.36 ± 0.22; (338.15 K) 4.09 ± 0.21; (343.15 K) 4 ± 0.2; (348.15 K) 3.95 ± 0.2.
As for `C=CCCCC` [hex-1-ene] + NCCCCCCCCCCCCN, the activity coefficient amounted to 4.28 ± 0.22 (348.25 K), 4.12 ± 0.21 (353.15 K), 3.93 ± 0.2 (358.25 K) and 3.8 ± 0.2 (363.21 K).
Consider `C=CCCCC` [hex-1-ene] + NCCCCCCCCCCN, for which the activity coefficient is, setting by setting: (338.2 K) 3.37 ± 0.17; (348.15 K) 3.06 ± 0.16; (353.22 K) 2.92 ± 0.15.
For `C=CCCCC` [hex-1-ene] + NCCCCCCCCN, the activity coefficient by setting is: (328.15 K) 3.18 ± 0.16; (338.15 K) 2.94 ± 0.15; (343.15 K) 2.85 ± 0.15; (348.15 K) 2.77 ± 0.14.
As to `CCCCCC` [hexane] + NCCCCCCCCCCCCN, the activity coefficient amounted to 4.86 ± 0.25 (348.25 K), 4.8 ± 0.25 (353.15 K), 4.74 ± 0.24 (358.25 K) and 4.69 ± 0.24 (363.21 K).
`CCCCCC` [hexane] + NCCCCCCCCCCN: the activity coefficient turned out to be 4.96 ± 0.26 (338.2 K), 4.55 ± 0.23 (348.15 K) and 4.41 ± 0.23 (353.22 K).
With `CCCCCC` [hexane] + NCCCCCCCCN, the activity coefficient (328.15 K) turned out to be 4.03 ± 0.21, the activity coefficient (338.15 K) was found to be 3.83 ± 0.2, the activity coefficient (343.15 K) was found to be 3.75 ± 0.19 and the activity coefficient (348.15 K) amounted to 3.72 ± 0.19.
Turning to `CO` [methanol] + NCCCCCCCCCCCCN, the activity coefficient reads like this: (348.25 K) 0.774 ± 0.037; (353.15 K) 0.841 ± 0.039; (358.25 K) 0.919 ± 0.041; (363.21 K) 1.01 ± 0.044.
Regarding `CO` [methanol] + NCCCCCCCCCCN, the activity coefficient by setting is: (338.2 K) 0.551 ± 0.032; (348.15 K) 0.634 ± 0.033; (353.22 K) 0.682 ± 0.035.
Turning to `CO` [methanol] + NCCCCCCCCN, the activity coefficient was determined as 0.284 ± 0.028 (328.15 K), 0.317 ± 0.028 (338.15 K), 0.34 ± 0.028 (343.15 K) and 0.369 ± 0.029 (348.15 K).
Take `C=CCCCCCC` [oct-1-ene] + NCCCCCCCCCCCCN: the activity coefficient by setting is: (348.25 K) 4.83 ± 0.25; (353.15 K) 4.53 ± 0.23; (358.25 K) 4.33 ± 0.22; (363.21 K) 4.11 ± 0.21.
Turning to `C=CCCCCCC` [oct-1-ene] + NCCCCCCCCCCN, the activity coefficient by setting is: (338.2 K) 4.09 ± 0.21; (348.15 K) 3.65 ± 0.19; (353.22 K) 3.45 ± 0.18.
With `C=CCCCCCC` [oct-1-ene] + NCCCCCCCCN, the activity coefficient runs as follows: (328.15 K) 3.94 ± 0.2; (338.15 K) 3.38 ± 0.17; (343.15 K) 3.16 ± 0.16; (348.15 K) 3 ± 0.15.
As to `CCCCCCCC` [octane] + NCCCCCCCCCCCCN, the activity coefficient (348.25 K) stood at 5.54 ± 0.28, the activity coefficient (353.15 K) was found to be 5.43 ± 0.28, the activity coefficient (358.25 K) came out at 5.27 ± 0.27 and the activity coefficient (363.21 K) stood at 5.19 ± 0.27.
In the case of `CCCCCCCC` [octane] + NCCCCCCCCCCN, the activity coefficient worked out at 5.24 ± 0.27 (338.2 K), 4.79 ± 0.25 (348.15 K) and 4.55 ± 0.23 (353.22 K).
Regarding `CCCCCCCC` [octane] + NCCCCCCCCN, the activity coefficient reads like this: (328.15 K) 4.73 ± 0.24; (338.15 K) 4.4 ± 0.23; (343.15 K) 4.24 ± 0.22; (348.15 K) 4.13 ± 0.21.
